The values that follow are results of earlier work, collected in patent US6696082B2, “Enhanced liposomal thioretinaco ozonide compositions and liposomal carrier” (priority 2002, dated 2004).

For one data set, the system named is malignant tumors. Conditions: in vivo; cited from earlier work.
Data set [1] relates to cultured malignant and normal cells. To be noted: except at high concentrations; cited from earlier work.
For data set [2] the following is noted: rats treated with parenteral homocysteine thiolactone; cited from earlier work.
Data set [3] relates to human pancreatic adenocarcinomas. To be noted: intra-tumor administration, athymic mice; cited from earlier work.

On to `NC(=O)/C=C\C(=O)NC1CCSC1=O` (centres unmarked) [N-maleamide homocysteine thiolactone amide], for which the “growth of malignant tumors in animals” value in the data set on malignant tumors is recorded as “suppress the growth of malignant tumors in animals”.

Turning to “rhodium trichloride oxalyl homocysteine thiolactone amide”, the “growth of malignant tumors in animals” value in the data set on malignant tumors was “suppress the growth of malignant tumors in animals”.

As to “N-homocysteine thiolactonyl retinamido cobalamin [(NHTR)2Cbl]”, the “growth of cultured cells” value in data set [1] is listed as “decrease growth without degeneration or detachment of the cells”. In data set [2], the antiatherogenic activity entry is listed as “have antiatherogenic activity”. Also, the “growth of human pancreatic adenocarcinomas” value in data set [3] is given as “decreased the growth”.

Consider N-maleyl homocysteine thiolactone amide, for which, in the data set with malignant tumors, the “growth of malignant tumors in animals” value is “suppress the growth of malignant tumors in animals”.

Take `CC1=C(/C=C/C(C)=C/C=C/C(C)=C/C(=O)NC2CCSC2=O)C(C)(C)CCC1` (centres unmarked) [thioretinamide, N-homocysteine thiolactonyl retinamide]: the “growth of cultured cells” value in data set [1] is “decrease growth without degeneration or detachment of the cells”. For the same compound, the antiatherogenic activity entry in data set [2] is recorded as “have antiatherogenic activity”.
